The nature of data set [1]: Plasma, tumor and lung exposure in mice of the Ba/F3 CDX efficacy experiment. The data set is classed as in vivo. As to conditions: mouse, 15.0 mg/kg/day oral. On the procedure:
On Day 14 after administration to the groups for the efficacy experiment, the plasma was collected from the mice by submandibular blood collection before last administration and 2 hours after last administration, and the plasma samples were collected from the mice at 1 h, 4 h, 8 h and 24 h after administration. About 100 ul of blood was collected each time, placed in an anticoagulation tube, and centrifuged at 8000 rpm for 7 min, to collect plasma, which was stored at −80° C.

Data set [2] deals with PC9 (EGFR-C797S/T790M/del19). As to conditions: combination with panitumumab or cetuximab; Nature Communications 8:14768, 2017; cited from earlier work.
In data set [3] the target is EGFR (Δ19del/T790M/C797S) (Homo sapiens, UniProt P00533, C797S/T790M, form not given). Kind of data set: Enzyme activity experiment (1): EGFR (Δ19del/T790M/C797S) enzyme inhibition. The data set is classed as biochemical. As to conditions: read-out: EGFR (Δ19del/T790M/C797S) IC50. On the procedure:
1) 10 μL of the compounds to be tested and reference compounds diluted to 10 mM were taken into an Echo LDV plate, which were diluted according to the compound profile with Echo.
1) 1×enzyme reaction buffer was prepared: 1× enzyme buffer, 5 mM MgCl2, 1 mM DTT (dithiothreitol), water.
2) A mixed solution of 10 nM enzyme (final concentration of 5 nM) and 2 μM substrate (final concentration of 1 μM) and a solution containing the substrate alone were prepared with the diluted enzyme reaction buffer.
3) 5 μL of the substrate was added into A1-H1, J24-P24 (the number of the well position), and 5 μL of the mixture of the enzyme and substrate was added into the remaining wells.
4) Centrifugation was performed at 1000 rpm at 23° C. for 30 s.
5) Incubation was performed at 23° C. for 15 min.
7) Centrifugation was performed at 1000 rpm at 23° C. for 30 s.
8) Incubation was performed at 23° C. for 60 min.
9) 10 μL of 250 nM TK Antibody-Crypate (a final concentration of 125 nM) and 1×D2 (a final concentration ½ time) prepared with Detection buffer were added.
10) Centrifugation was performed at 1000 rpm at 23° C. for 30 s.
11) Incubation was performed at 23° C. for 60 min.
12) The data was read with Envision, and the ratio was calculated to obtain the IC50 of the compound for inhibiting the enzyme activity.

The test system of another data set is A431 cells (EGFR WT). Kind of data set: Cell antiproliferation experiment (1), A431 cells, CellTiter Glo. The format is cell-based. As to conditions: Homo sapiens, A-431, 72 h, read-out: anti-proliferation effect on cells A431 EGFR WT IC50. The procedure: 1) Cell Culture and Passage
(1) A431 medium: 88% DMEM+10% fetal bovine serum+1% L-glutamine+1% double-antibody
(2) A431 cells were isolated and passaged every 3-4 days, wherein the number of the cells for 3-day passage was 5e6 cells per T75 culture flask, and the number of the cells for 4-day passage was 3e6 cells per T75 culture flask.
2) Day 1: Preparation of Cell Plate
(1) Phosphate buffer, trypsin, and a culture medium were placed in a water bath at 37° C. to preheat.
(2) The original medium was removed from the cell culture flask and washed once with 6 mL of PBS.
(3) 5 mL of phosphate buffer was pipetted into the culture flask to rinse the cells (passage 17), and then the liquid was discarded.
(4) The cell culture flask was added with 3.5 mL of trypsin, and shaken gently, trypsin was removed after fully contact with the cells, and then the culture flask was placed in an incubator containing 5% CO2 at 37° C. for about 1 minute;
(5) The cells were resuspended in 10 mL cell culture medium, and about 0.6 mL of cell suspension was take out for counting (ViCell XR);
(6) The cell suspension was diluted with the medium to the cell density of 5e4 cells per ml, which was required for plating (cell concentration: 2500 cells per well);
(7) 100 μL of phosphate buffer solution was added to each well around the cell plate, while 50 μL of the cell suspension was added to other wells, and the plate was incubated overnight in a incubator containing 5% CO2 at 37° C.
(1) 9 μL of the compound (concentration: 1 mM) was added into a shallow well plate for Echo.
(2) The shallow well plate was centrifuged at 1000 rpm for 10 s and the cell plate was removed from the incubator.
(3) According to the layout of the microplate, the compounds was diluted with a three-fold concentration gradient using Echo, each compound was diluted to 10 concentration gradients and 250 nL of the diluted compounds was respectively added to the cell plate, and then the cell plate was returned to the incubator and further incubated for 3 days.
4) Day 5: Adding CTG and Reading the Plate
(1) After incubation for 72 h, 25 μL of CellTiter Glo was added to each well of the cell plate, followed by shaking the plate for 10 min in the dark.
(2) The plate was read on Envision.
Data analysis: By computer fitting, the corresponding concentration of the compound at 50% inhibition rate was read as the IC50 of the compound for inhibiting cell activity.
In general terms: ATP-based viability assays read luminescence as a measure of living cells.

Data set [4] concerns pEGFR Ba/F3 (EGFR Δ19del/T790M/C797S) cells. Kind of data set: Cell phosphorylation inhibition experiment, pEGFR Ba/F3 (EGFR Δ19del/T790M/C797S). The data set is classed as cell-based. As to conditions: Ba/F3 EGFR; Ba/F3 cells, EGF stimulated; read-out: Effect on cellular EGFR phosphorylation Ba/F3(Δ19del/T790M/C797S) IC50. The procedure:
The test compounds and reference compounds were diluted with 100% DMSO to 10 mM or 1 mM, and then a gradient dilution was performed by using Echo, 150 nL per well, with a three-fold concentration gradient and a ten-point dose response curve. The final concentration of the compounds was 100 μM or 10 μM. The suspension cells was centrifuged at 1000 rp for 5 minutes, suspend in Hanks' balanced salt solution, and added to a 384-well plate containing the compounds at 10 L/120K/well (the cell density of 1.2×10^7), followed by centrifugation at 1200 rpm for 30 s and incubation at 37° C. for 30 min. 5 μL of EGF (which has been diluted with 0.1% BSA Hanks' balanced salt solution) was added to each well, in which the final concentration of EGF was 1 μM. The plate was centrifuged at 1200 rpm for 30 s and incubated at 37° C. for 20 min. 5 μL of 4× lysis buffer containing blocking solution was added to each well, and then the plate was centrifuged at 1200 rpm for 30 s, and incubated at 37° C. for 30 min.

In data set [5] the test system is Ba/F3 (EGFR Δ19del/T790M/C797S) cells. The data set is described as follows: Anti-proliferation experiment on cells (2), Ba/F3 (EGFR Δ19del/T790M/C797S). The data set is classed as cell-based. As to conditions: Ba/F3 EGFR, 72 h; Ba/F3 cells, 3 days; read-out: anti-proliferation effect on cells Ba/F3(Δ19del/T790M/C797S) IC50. On the procedure: The compounds ware transferred to a 384-well plate, with 125 nL of compound per well. […] After 3 days, 25 μL of detection reagent was added. The plate was incubated at room temperature for 10 minutes and then read with Envision.

Data set [6] has as its system L858R/T790M/C797S mutations model. As to conditions: combined with EGFR monoclonal antibody such as cetuximab; Nature 534, 129-132, 2016; cited from earlier work.

Where only a bound is given, the exact number is not on record here.

The values below come from patent publication US11390625B2, “Aryl-phosphorus-oxygen compound as EGFR kinase inhibitor” (Chia Tai Tianqing Pharmaceutical Group Co., Ltd., priority 2017, dated 2022).

Chain of EGFR (Δ19del/T790M/C797S) (P00533 25-1210 T790M/C797S limits assumed, form open): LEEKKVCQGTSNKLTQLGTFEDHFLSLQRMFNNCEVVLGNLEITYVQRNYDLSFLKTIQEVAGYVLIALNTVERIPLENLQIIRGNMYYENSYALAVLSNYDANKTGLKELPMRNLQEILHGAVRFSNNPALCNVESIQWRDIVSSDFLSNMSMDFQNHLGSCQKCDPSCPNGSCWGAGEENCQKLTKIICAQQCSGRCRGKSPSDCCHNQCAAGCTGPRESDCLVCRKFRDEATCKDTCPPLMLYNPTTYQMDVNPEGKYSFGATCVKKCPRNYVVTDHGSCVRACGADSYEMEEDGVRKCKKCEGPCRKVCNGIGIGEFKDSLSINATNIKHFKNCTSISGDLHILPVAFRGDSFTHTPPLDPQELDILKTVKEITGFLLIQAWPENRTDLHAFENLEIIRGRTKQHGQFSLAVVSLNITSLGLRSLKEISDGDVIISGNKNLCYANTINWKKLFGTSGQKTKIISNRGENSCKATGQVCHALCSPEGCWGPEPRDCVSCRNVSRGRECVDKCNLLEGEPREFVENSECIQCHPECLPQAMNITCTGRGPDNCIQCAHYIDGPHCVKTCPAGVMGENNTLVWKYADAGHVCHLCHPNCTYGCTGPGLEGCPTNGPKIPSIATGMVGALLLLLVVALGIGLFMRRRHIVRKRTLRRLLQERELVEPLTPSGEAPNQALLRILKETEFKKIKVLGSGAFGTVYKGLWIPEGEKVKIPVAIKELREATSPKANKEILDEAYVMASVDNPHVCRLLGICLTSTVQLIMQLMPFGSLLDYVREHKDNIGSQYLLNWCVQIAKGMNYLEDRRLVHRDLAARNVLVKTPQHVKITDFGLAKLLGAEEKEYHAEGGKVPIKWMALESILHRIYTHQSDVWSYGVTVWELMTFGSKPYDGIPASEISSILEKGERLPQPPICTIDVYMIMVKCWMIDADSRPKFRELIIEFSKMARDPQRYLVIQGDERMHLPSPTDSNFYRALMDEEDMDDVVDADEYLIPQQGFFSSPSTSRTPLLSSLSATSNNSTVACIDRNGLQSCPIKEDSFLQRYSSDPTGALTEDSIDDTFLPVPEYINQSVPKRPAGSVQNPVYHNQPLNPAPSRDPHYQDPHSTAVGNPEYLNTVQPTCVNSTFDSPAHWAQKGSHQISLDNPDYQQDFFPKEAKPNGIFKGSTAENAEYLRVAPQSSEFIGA

As to `COc1cc(N2CCC(N3CCN(C)CC3)CC2)ccc1Nc1ncc(Cl)c(Nc2ccccc2P(C)(C)=O)n1` [Brigatinib, reference compound], in data set [1] (BALB/c nude, plasma), the AUC(0-t) (as a rule, the area under the concentration-time curve up to a stated or last time point) turned out to be 32.8 µM·h and the half-life (in general, the time in which the quantity being followed falls by half) was 5.57 h. This compound came in with a concentration at 2 h in data set [1] (BALB/c nude, plasma, 2 h after administration) of 5.18 µM. In data set [1] (2 h after administration), the “Lung, 2 h” value worked out at 10217 nmol/kg and the “Tumor, 2 h” value is 5807 nmol/kg. Besides, the antitumor efficacy entry in data set [2] was “good antitumor efficacy”.

With `COc1cc(N2CCC3(CC2)CN(C)C3)c(C)cc1Nc1ncc(Cl)c(Nc2ccc3sccc3c2P(C)(C)=O)n1` [Compound 2], the IC50 in data set [3] was found to be 0.613 nM; with A431 cells (EGFR WT), 811 nM; in data set [4] it was 68 nM; in data set [5] it was 178 nM.

As for `COc1cc(N2CCC(N3CCN(C)CC3)CC2)ccc1Nc1ncc(Cl)c(Nc2ccc3sccc3c2P(C)(C)=O)n1` [Compound 3], the IC50 in the data set with A431 cells (EGFR WT) amounted to 3240 nM; in data set [4], 187 nM; in data set [5], 638 nM.

For the compound `COc1cc(N2CCC3(CCN(C)CC3)CC2)c(Cl)cc1Nc1ncc(Cl)c(Nc2ccc3ccccc3c2P(C)(C)=O)n1` [Compound 4], the IC50 in the data set on A431 cells (EGFR WT) was 3750 nM; in data set [4], 278 nM; in data set [5], 556 nM.

As for `COc1cc(N2CCC3(CC2)CN(C)C3)ccc1Nc1ncc(Cl)c(Nc2ccc3ccccc3c2P(C)(C)=O)n1` [Compound 5], the IC50 in data set [3] was determined as 1.63 nM; with A431 cells (EGFR WT), 890 nM; in data set [4], 96 nM; in data set [5], 313 nM.

With `COc1cc(N2CCC(N3CCN(C)CC3)CC2)ccc1Nc1ncc(Cl)c(Nc2ccc3ccccc3c2P(C)(C)=O)n1` [Compound 6], the IC50 in data set [3] worked out at 2.54 nM; with A431 cells (EGFR WT), 997 nM; in data set [4], 187 nM; in data set [5], 361 nM.

Regarding `COc1cc(N2CCC3(CC2)CN(C)C3)c(C)cc1Nc1ncc(Cl)c(Nc2ccc3ccccc3c2P(C)(C)=O)n1` [Compound 9], the IC50 in data set [3] was found to be 0.485 nM; in the data set on A431 cells (EGFR WT), 282 nM; in data set [4] it was 149 nM; in data set [5], 149 nM.

As to `COc1cc(N2CCC3(CC2)CN(C)C3)c(C)cc1Nc1ncc(Cl)c(Nc2ccc3cccnc3c2P(C)(C)=O)n1` [Compound 12], the values for the IC50 (with A431 cells (EGFR WT); in data set [4]; in data set [5]) were 1260 nM, 203 nM and 239 nM, respectively.

Regarding `COc1cc(N2CCC3(CC2)CN(C)C3)c(C)cc1Nc1ncc(Cl)c(Nc2ccc3cnn(C)c3c2P(C)(C)=O)n1` [Compound 13], the IC50 in data set [3] was 5.79 nM; in the data set on A431 cells (EGFR WT) it was over 10000 nM; in data set [4], 1720 nM; in data set [5], 3620 nM.

Consider `COc1cc(N2CCC3(CC2)CN(C)C3)c(C)cc1Nc1ncc(Br)c(Nc2ccc3nccnc3c2P(C)(C)=O)n1` [Compound 36], for which the IC50 with A431 cells (EGFR WT) turned out to be 168 nM; in data set [4] it was 25 nM; in data set [5] it was 45 nM.

Turning to `COc1cc(N2CCC3(CC2)CN(CCN(C)C)C3)c(C)cc1Nc1cc(Nc2ccc3nccnc3c2P(C)(C)=O)c(Br)cn1` [Compound 37], the IC50 in the data set with A431 cells (EGFR WT) was 357 nM; in data set [4] it was 94 nM; in data set [5], 56 nM.

`CCc1cc(Nc2ncc(Br)c(Nc3ccc4nccnc4c3P(C)(C)=O)n2)c(OC)cc1N1CCC2(CC1)CN(C)C2` [Compound 40]: the IC50 amounted to 561 nM in the data set with A431 cells (EGFR WT), 24 nM in data set [4] and 31 nM in data set [5].

`O=C(Nc1nccs1)C(c1cc(F)ccc1O)N1Cc2ccccc2C1=O` (stereo not drawn) [EAI045]: in data set [6], the tumor inhibition effect entry was “better tumor inhibition effect”.

As to `COc1cc(N2CCC(N3CCN(C)CC3)CC2)ccc1Nc1ncc(Cl)c(Nc2ccc3nccnc3c2P(C)(C)=O)n1` [Example 59], the IC50 in the data set with A431 cells (EGFR WT) was found to be 534 nM; in data set [4], 534 nM; in data set [5] it was 54.3 nM.

`COc1cc(N2CCC(N3CCN(C)CC3)CC2)ccc1Nc1ncc(Br)c(Nc2ccc3nccnc3c2P(C)(C)=O)n1` [Example 60]: the IC50 with A431 cells (EGFR WT) stood at 271 nM; in data set [4], 271 nM; in data set [5], 47.6 nM.

For `COc1cc(N2CCC(N3CCN(C)CC3)CC2)c(C)cc1Nc1ncc(Cl)c(Nc2ccc3nccnc3c2P(C)(C)=O)n1` [Example 61], the IC50 in the data set with A431 cells (EGFR WT) is 58 nM; in data set [4] it was 58 nM; in data set [5] it was 32.2 nM.
